Data published in the supplement of paper PMC10307832.

What was measured:
Assay in all cases: relative viability (nuclei count vs DMSO), 5 days (fraction); higher = more cells survive
[1] = compound: CCC1=CN=CN=C1N2CCN(CC2)CC3=NC4=C(N3)C=C(C=C4)C(F)(F)F + COc1cc2c(Oc3ccc(NC(=O)C4(C(=O)Nc5ccc(F)cc5)CC4)cc3F)ccnc2cc1OCCCN1CCOCC1 [Foretinib] (partner 0.25 µM)
In short: (§1)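 Lung cancer cell lines, seeded in 1536-well plates, were treated the following day by pin tool with a single drug or with five library-drug doses (not always all listed) in √10 steps on top of a fixed anchor-drug dose. Cells were fixed and nuclei stained in one step after 5 days, and nuclei were counted. Relative viability is the nuclei count for treated wells divided by that for vehicle wells, reported as medians of duplicate plates.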

[2] = compound: CCn1c(-c2nonc2N)nc2cnc(Oc3cccc(NC(=O)c4ccc(OCCN5CCOCC5)cc4)c3)cc21 + Cc1nc(NC(=O)N2CCC[C@H]2C(N)=O)sc1-c1ccnc(C(C)(C)C(F)(F)F)c1 [Alpelisib] (partner 2 µM)
In short: as §1

[3] = compound: CCn1c(-c2nonc2N)nc2cnc(Oc3cccc(NC(=O)c4ccc(OCCN5CCOCC5)cc4)c3)cc21 + CC1(C)CCC(c2ccc(Cl)cc2)=C(CN2CCN(c3ccc(C(=O)NS(=O)(=O)c4ccc(N[C@H](CCN5CCOCC5)CSc5ccccc5)c(S(=O)(=O)C(F)(F)F)c4)cc3)CC2)C1 [Navitoclax] (partner 0.5 µM)
In short: as §1

Mirin + Trametinib = compound: N=C1NC(=O)/C(=C/c2ccc(O)cc2)S1 [Mirin] + CC(=O)Nc1cccc(-n2c(=O)n(C3CC3)c(=O)c3c(Nc4ccc(I)cc4F)n(C)c(=O)c(C)c32)c1 [Trametinib] (partner 0.02 µM)
In short: as §1

Cell Line | relative viability ([1]; first compound 0.04 µM) | relative viability ([1]; first compound 0.1265 µM) | relative viability ([1]; first compound 0.4 µM) | relative viability ([1]; first compound 1.265 µM) | relative viability ([1]; first compound 4 µM) | relative viability ([2]; first compound 0.04 µM) | relative viability ([2]; first compound 0.1265 µM) | relative viability ([2]; first compound 0.4 µM) | relative viability ([2]; first compound 1.265 µM) | relative viability ([2]; first compound 4 µM) | relative viability ([3]; first compound 0.04 µM) | relative viability ([3]; first compound 0.1265 µM) | relative viability ([3]; first compound 0.4 µM) | relative viability ([3]; first compound 1.265 µM) | relative viability ([3]; first compound 4 µM) | relative viability (Mirin + Trametinib; first compound 0.25 µM) | relative viability (Mirin + Trametinib; first compound 0.7906 µM) | relative viability (Mirin + Trametinib; first compound 2.5 µM) | relative viability (Mirin + Trametinib; first compound 7.906 µM) | relative viability (Mirin + Trametinib; first compound 25 µM)
NCI-H1666 | 0.88 | 0.923 | 0.97 | 0.882 | 0.889 | 1.45 | 1.21 | 1.06 | 0.606 | 0.513 | 1.09 | 1.28 | 1.07 | 0.648 | 0.495 | 0.909 | 0.764 | 0.77 | 0.607 | 0.772
NCI-H1734 | 0.828 | 0.811 | 0.874 | 0.816 | 0.765 | 0.802 | 0.708 | 0.513 | 0.571 | 0.402 | 1.11 | 0.81 | 0.684 | 0.564 | 0.345 | 0.688 | 0.749 | 0.646 | 0.633 | 0.675
NCI-H1755 | 0.895 | 0.86 | 0.844 | 0.743 | 0.88 | 0.975 | 1.01 | 0.923 | 0.872 | 0.882 | 1.06 | 1.01 | 0.944 | 0.992 | 0.996 | 0.745 | 0.793 | 0.755 | 0.771 | 0.841
NCI-H1793 | 0.7 | 0.771 | 0.568 | – | 0.669 | 0.639 | 0.671 | 0.662 | 0.652 | 0.599 | 0.315 | 0.38 | 0.305 | 0.191 | 0.238 | 0.497 | – | 0.39 | 0.352 | 0.607
NCI-H1915 | 1.11 | 1.06 | 1.04 | 0.943 | 0.996 | 1.03 | 1.09 | 1.03 | 1.08 | 1.04 | 0.829 | 0.797 | 0.764 | 0.575 | 0.762 | 0.29 | 0.332 | 0.28 | 0.328 | 0.389
NCI-H1944 | 1.1 | 0.844 | 0.809 | 0.648 | 0.694 | 0.934 | 0.809 | – | 0.781 | 0.789 | 1.03 | 1.03 | – | 1.02 | 0.97 | 0.35 | 0.397 | 0.387 | 0.387 | 0.32
NCI-H1975 | 1 | 0.945 | 0.986 | 0.829 | 0.803 | 0.548 | 0.439 | 0.401 | 0.221 | 0.202 | 0.827 | 0.818 | 0.763 | 0.372 | 0.286 | 0.379 | 0.337 | 0.365 | 0.337 | 0.55
NCI-H1993 | 0.844 | 0.73 | 0.668 | 0.682 | 0.668 | 0.758 | 0.77 | – | 0.719 | 0.668 | 0.795 | 0.941 | – | 0.902 | 0.787 | 0.506 | 0.519 | 0.533 | 0.336 | 0.546
NCI-H2009 | 1.23 | 1.25 | 1.16 | 1.24 | 1.21 | 1.01 | 0.987 | 0.857 | 0.745 | 0.5 | 1.09 | 0.971 | 0.999 | 0.561 | 0.384 | 0.277 | 0.334 | 0.334 | 0.293 | 0.282
NCI-H2023 | 0.698 | 0.911 | 0.849 | 0.628 | 0.895 | 0.715 | 0.666 | 0.66 | 0.549 | 0.425 | 1.18 | 0.963 | 1.04 | 0.773 | 0.688 | 0.716 | 0.558 | 0.668 | 0.56 | 0.597
NCI-H2085 | 0.971 | 1.13 | 0.792 | 0.76 | 0.959 | 1.15 | 0.959 | 0.86 | 0.869 | 0.845 | 1.39 | 1.08 | 1.02 | 0.937 | 1.01 | 0.514 | 0.465 | 0.519 | 0.511 | 0.59
NCI-H2087 | 1 | 1.06 | 0.916 | 1.05 | 0.535 | – | 0.767 | 0.886 | 0.838 | 0.524 | – | 0.789 | 0.962 | 0.785 | 0.598 | 0.292 | 0.211 | 0.161 | 0.19 | 0.209
NCI-H2126 | 1.15 | 1.26 | 1.06 | 0.986 | 1.17 | 0.804 | 0.703 | 0.728 | 0.822 | 0.789 | 0.87 | 0.822 | 0.825 | 0.917 | 0.84 | 0.604 | 0.568 | 0.552 | 0.56 | 0.501
NCI-H2170 | 1.01 | 0.975 | 0.94 | 0.867 | 1 | 0.748 | 0.747 | 0.912 | 0.719 | 0.817 | 0.392 | 0.602 | 0.539 | 0.626 | 0.633 | 0.981 | 0.875 | 0.976 | 0.915 | 0.859
NCI-H2228 | 1.09 | 0.848 | 0.647 | 0.746 | 0.801 | 1.14 | 0.998 | 0.776 | 0.732 | 0.644 | 0.759 | 0.841 | 1.07 | 0.927 | 0.833 | 0.627 | 0.39 | 0.551 | 0.382 | 0.423
NCI-H2347 | 0.8 | 0.714 | 0.798 | – | 0.896 | 1.12 | 1.06 | 0.906 | 0.511 | 0.588 | 0.967 | 0.811 | 0.858 | 0.365 | 0.502 | 0.301 | 0.313 | 0.26 | 0.3 | 0.274
